Here are results for one molecule from patent US10485844B2, “Methods for treating severe atopic dermatitis by administering an IL-4R inhibitor” (Regeneron Pharmaceuticals, Inc., priority 2016, dated 2019).

This data set deals with CYP3A. In words: Effect of dupilumab on PK of CYP substrate cocktail: midazolam. To be noted: oral cocktail before (Day 1) and during dupilumab 300 mg weekly (Day 36); n = 13. How it is done: Subcutaneous dupilumab was administered as a 600 mg loading dose on Day 8, followed by a weekly dose of 300 mg from Day 15 to Day 50. PK parameters included Geometric Mean Ratios (GMR) of AUClast (area under the plasma concentration-time curve from time zero to the time of the last quantifiable concentration) and Cmax (maximum observed plasma concentration) measured at Day 1 and Day 36, while efficacy assessments included changes in Eczema Area and Severity Index (EASI) scores (scale 0-72).

As for `Cc1ncc2n1-c1ccc(Cl)cc1C(c1ccccc1F)=NC2` [midazolam, reference compound], the “Geometric Mean Ratio (Day 36/Day 1), AUClast” value was determined as 0.98 and the “Geometric Mean Ratio (Day 36/Day 1), Cmax” value is recorded as 1.13.
